Results: patent publication US20240043435A1, “TYK-2 INHIBITOR” (BEIGENE, LTD., priority 2020, published 2024)
Where two headings read alike, the source gives them in different places.

Legend:
[1] = test system: JAK2, TYK2/p-STAT4 (Tyr693) activated by IL-12 in NK-92 cell line; assay: IL-12-JAK2, TYK2/p-STAT4 (Tyr693) inhibition IC50 cellular assay; type: cell-based; conditions: for IC50: read-out: pSTAT4/IL-12 IC50; for Selectivity fold (TYK2/JAK2): pSTAT5/GM-CSF IC50 vs pSTAT4/IL-12 IC50
Text: Assay C: IL-12-JAK2, TYK2/p-STAT4 (Tyr693) Inhibition IC50 Cellular Assay
To evaluate the inhibition effect of compounds disclosed herein on JAK2, TYK2/p-STAT4 (Tyr693) activated by IL-12 in NK-92 cell line, NK-92 cells were collected and washed 3 times by DPBS and resuspended in MEM-α (GIBCO, Cat #12561056) with 10% FBS (Gibco, Cat #10099, Lot #1891605), without IL-2 (R&D systems, Cat #202-IL), starved overnight. Cells were collected and resuspended in 1640 medium (phenol red free, Gibco, Cat #11835-030) with 0.1% BSA, and 12.5 μl/5×10^4/well cell suspension were seeded to the 96-well plate (Corning, Cat #3799). Then cells were treated with compounds diluted in 0.2% DMSO 1640 medium, at 37° C., 1 h. Dilution is done according to the following protocol: (1) make 500× compounds solution in DMSO from 5 mM by 4-fold dilution, total 8 doses were included; (3) make 2× compounds solution in assay medium by transferring 0.5 μl serial 500× stock solution into 125 μl assay medium; (4) 15 μl of 2× serial solution is added to cells and incubate at 37° C. for 1 h, the final compound conc. is 10000, 2500, 625, 156.25, 39, 9.8, 2.4 and 0.61 nM, respectively. After 1 h, cells were treated with 2.5 μl medium containing IL-12 at 37° C. (R&D systems, Cat #219-IL-005, final conc. 40 ng/ml), 30 min. Following cells were lysed with 7.5 μl lysis buffer at RT, shaking on shaker for 1 h. 10 μL of cell lysate were transferred to a PE 384-well Proxiplate detection plate, and 5 μL of pre-mixed Alphascreen beads were added to each well. Covered the plate with a plate sealer, span 1000 rpm for 1 min, mix, Incubated overnight at room temperature. Read on BMG PheraStar with Alphascreen protocol. IC 50 values were calculated by fitting dependent data to the four-parameter logistic model using dotmatics software. The assay was performed by using AlphaLISA SureFire Ultra p-STAT4 (Tyr693) Assay Kit—High Volume (PE, Cat #ALSU-PST4-A-HV).

[2] = biological target: T1, TYK2-JH2 (aa 575-869, in-house) protein (Homo sapiens, UniProt P29597); assay: TYK2-JH2 biochemical assay (HTRF probe displacement); type: binding; conditions: for IC50: Biochemical assay, read-out: TYK2-JH2 IC50
T1 construct: TYK2-JH2 (aa 575-869, in-house) protein; made in house
T1 sequence (P29597 575-869): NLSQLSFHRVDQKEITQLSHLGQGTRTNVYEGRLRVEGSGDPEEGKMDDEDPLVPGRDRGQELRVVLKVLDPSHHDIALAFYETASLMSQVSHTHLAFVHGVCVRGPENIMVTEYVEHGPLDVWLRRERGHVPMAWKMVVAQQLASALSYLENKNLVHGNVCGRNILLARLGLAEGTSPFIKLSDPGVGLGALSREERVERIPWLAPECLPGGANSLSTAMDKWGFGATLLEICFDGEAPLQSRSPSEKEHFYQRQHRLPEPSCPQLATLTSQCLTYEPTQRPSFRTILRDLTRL
Protocol: Assay A: TYK2-JH2 Biochemical Assay
Compounds disclosed herein were tested for blocking of TYK2-JH2 (aa 575-869, in-house) protein with its probe in an assay based on Homogeneous Time Resolved Fluorescence. Compound dilution is done according to the following protocol: (1) Prepare 500× compounds solution in DMSO from 500 uM by 5-fold dilution, total 10 doses were included; (2) Prepare 10× compounds solution in an assay buffer containing 20 mM HEPES, pH 7.5, 10 mM MgCl2, 0.005% BSA, 2 mM DTT, 0.015% Brij-35 by transferring 1 μl serial 500× stock solution into 49 μl assay buffer. […] of 0.2 nM recombinant TYK2-JH2 protein was pre-incubated with 1 μl of 10× serial dilution of compounds at room temperature for 0.5 hour. […] The HTRF signals (ex337 nm, em620 nm/665 nm) were read on BMG PHERAstar FS instrument. The inhibition percentage of TYK2 interaction with its probe in presence of increasing concentrations of compounds was calculated based on the ratio of fluorescence at 615 nm to that at 665 nm. The IC50 for each compound was derived from fitting the data to the four-parameter logistic equation by Dotmatics.

pSTAT5/GM-CSF = pSTAT5/GM-CSF cellular assay (JAK2 selectivity); type: cell-based; conditions: for Selectivity fold (TYK2/JAK2): pSTAT5/GM-CSF IC50 over pSTAT4/IL-12 IC50

Row | Compound | IC50 ([1]; NK92, Cellular assay) [nM] | IC50 [2] [nM] | IC50 (pSTAT5/GM-CSF) [nM] | IC50 ([1]; Cellular assay) [nM] | Selectivity fold (TYK2/JAK2) (pSTAT5/GM-CSF) [fold] | Selectivity fold (TYK2/JAK2) ([1]; Cellular assay) [fold] | Kd ([2]; in-house probe of the TYK2-JH2 assay) [nM]
1 | CC(=O)Nc1cc(Nc2cccc(S(C)(=O)=O)n2)c(-c2c[nH]cn2)cn1 [Example A3, N-(5-(1H-imidazol-4-yl)-4-((6-(methylsulfonyl)pyridin-2-yl)amino)pyridin-2-yl)acetamide] | 2.53 | 0.035 | > 10000 |  |  | >3952 | 
2 | CC(=O)Nc1cc(Nc2cc(C)cc(S(C)(=O)=O)n2)c(-c2ccco2)cn1 [Example A9, N-(5-(furan-2-yl)-4-((4-methyl-6-(methylsulfonyl)pyridin-2-yl)amino)pyridin-2-yl)acetamide] | 1.33 | 0.041 | > 10000 |  |  | >7518 | 
3 | CC(=O)Nc1cc(Nc2cccc(S(C)(=O)=O)c2)c(-c2ncn(C)n2)cn1 [Example A10, N-(5-(1-methyl-1H-1,2,4-triazol-3-yl)-4-((3-(methylsulfonyl)phenyl)amino)pyridin-2-yl)acetamide] | 3000 | 2.4 |  |  |  |  | 
4 | COc1ccc(S(C)(=O)=O)nc1Nc1cc(NC(C)=O)ncc1-c1cnn(C)c1 [Example A11, N-(4-((3-methoxy-6-(methylsulfonyl)pyridin-2-yl)amino)-5-(1-methyl-1H-pyrazol-4-yl)pyridin-2-yl)acetamide] | 41.7 | 0.063 | > 10000 |  |  | >239 | 
5 | CC(=O)Nc1cc(Nc2cc(OC(C)C)cc(S(C)(=O)=O)n2)c(-n2cccn2)cn1 [Example A12, N-(4-((4-isopropoxy-6-(methylsulfonyl)pyridin-2-yl)amino)-5-(1H-pyrazol-1-yl)pyridin-2-yl)acetamide] | 16.8 | 0.037 | > 10000 |  |  | >595 | 
6 | CC(=O)Nc1cc(Nc2cc(OC(C)C)cc(S(C)(=O)=O)n2)c(-c2ccn(CCO)n2)cn1 [Example A14, N-(5-(1-(2-hydroxyethyl)-1H-pyrazol-3-yl)-4-((4-isopropoxy-6-(methylsulfonyl)pyridin-2-yl)amino)pyridin-2-yl)acetamide] | 0.969 | 0.022 | > 10000 |  |  | >10319 | 
7 | COCCn1ccc(-c2cnc(NC(C)=O)cc2Nc2cc(C)cc(S(C)(=O)=O)n2)n1 [Example A15, N-(5-(1-(2-methoxyethyl)-1H-pyrazol-3-yl)-4-((4-methyl-6-(methylsulfonyl)pyridin-2-yl)amino)pyridin-2-yl)acetamide] | 0.687 | 0.04 | 3460 |  |  | 5039 | 
8 | CC(=O)Nc1cc(Nc2cc(OC(C)C)cc(S(C)(=O)=O)n2)c(-c2cccc(C#N)n2)cn1 [Example A16, N-(6-cyano-4′-((4-isopropoxy-6-(methylsulfonyl)pyridin-2-yl)amino)-[2,3′-bipyridin]-6′-yl)acetamide] | 0.667 | 0.021 | > 10000 |  |  | >14992 | 
9 | CC(=O)Nc1cc(Nc2cc(OC(C)C)cc(S(C)(=O)=O)n2)c(-c2ccc(C#N)cn2)cn1 [Example A17, N-(5-cyano-4′-((4-isopropoxy-6-(methylsulfonyl)pyridin-2-yl)amino)-[2,3′-bipyridin]-6′-yl)acetamide] | 1.64 | 0.028 | > 10000 |  |  | >6097 | 
10 | CC(=O)Nc1cc(Nc2cc(OC(C)C)cc(S(C)(=O)=O)n2)c(-c2ccn(C3CCC3)n2)cn1 [Example A19, N-(5-(1-cyclobutyl-1H-pyrazol-3-yl)-4-((4-isopropoxy-6-(methylsulfonyl)pyridin-2-yl)amino)pyridin-2-yl)acetamide] | 1.53 | 0.034 | > 10000 |  |  | >6535 | 
11 | CC(=O)Nc1cc(Nc2cc(C)cc(S(C)(=O)=O)n2)c(-c2ccc(C(C)(C)N)cn2)cn1 [Example A20, N-(5-(2-aminopropan-2-yl)-4′-((4-methyl-6-(methylsulfonyl)pyridin-2-yl)amino)-[2,3′-bipyridin]-6′-yl)acetamide] | 1.12 | 0.03 | 2380 |  |  | 2124 | 
12 | CC(=O)Nc1cc(Nc2cccc(S(C)(=O)=O)n2)c(-c2cccnn2)cn1 [Example A24, N-(4-((6-(methylsulfonyl)pyridin-2-yl)amino)-5-(pyridazin-3-yl)pyridin-2-yl)acetamide] | 1.85 | 0.027 | > 10000 |  |  | >5405 | 
13 | Cc1cc(C)cc(Nc2cc(NCCNC(=O)CCOCCOCCOCCOCCOCCOCCNC(=O)CCCC[C@@H]3SC[C@@H]4NC(=O)N[C@@H]43)c3ncc(C(N)=O)n3n2)c1 [Probe 1, 6-((3,5-dimethylphenyl)amino)-8-((4,26-dioxo-30-((3aS,4S,6aR)-2-oxohexahydro-1H-thieno[3,4-d]imidazol-4-yl)-7,10,13,16,19,22-hexaoxa-3,25-diazatriacontyl)amino)imidazo[1,2-b]pyridazine-3-carboxamide, reference compound] |  |  |  |  |  |  | 10

The next lines start with results.

Row | IC50 ([1]; NK92, Cellular assay) [nM] | IC50 [2] [nM] | IC50 (pSTAT5/GM-CSF) [nM] | IC50 ([1]; Cellular assay) [nM] | Compound | Selectivity fold (TYK2/JAK2) (pSTAT5/GM-CSF) [fold] | Selectivity fold (TYK2/JAK2) ([1]; Cellular assay) [fold] | Kd ([2]; in-house probe of the TYK2-JH2 assay) [nM]
14 | 0.626 | 0.019 | 2020 |  | CC(=O)Nc1cc(Nc2cc(C3COCCO3)cc(S(C)(=O)=O)n2)c(-c2ccc3c(n2)OCC(C)(C)O3)cn1 (racemic) [Example Q50, (R/S)—N-(4-((4-(1,4-dioxan-2-yl)-6-(methylsulfonyl)pyridin-2-yl)amino)-5-(2,2-dimethyl-2,3-dihydro-[1,4]dioxino[2,3-b]pyridin-6-yl)pyridin-2-yl)acetamide] | 3231 |  | 
15 |  | 0.034 | > 10000 | 0.979 | CC(=O)Nc1cc(Nc2cc(C3COCCO3)cc(S(C)(=O)=O)n2)c(-c2ccc3c(n2)OCC(C)(C)O3)cn1 (racemic) [Example Q51, (S/R)—N-(4-((4-(1,4-dioxan-2-yl)-6-(methylsulfonyl)pyridin-2-yl)amino)-5-(2,2-dimethyl-2,3-dihydro-[1,4]dioxino[2,3-b]pyridin-6-yl)pyridin-2-yl)acetamide] | >10214 |  | 
16 |  | 0.029 |  |  | CC(=O)Nc1cc(Nc2cc(N3CCCC3)cc(S(C)(=O)=O)n2)c(-c2ccc3c(n2)OCC(C)(C)O3)cn1 [Example Q104, N-(5-(2,2-dimethyl-2,3-dihydro-[1,4]dioxino[2,3-b]pyridin-6-yl)-4-((6-(methylsulfonyl)-4-(pyrrolidin-1-yl)pyridin-2-yl)amino)pyridin-2-yl)acetamide] |  |  | 
17 |  | 0.015 |  |  | CC(=O)Nc1cc(Nc2cc(N3CC4CC4C3)cc(S(C)(=O)=O)n2)c(-c2ccc3c(n2)OCC(C)(C)O3)cn1 (stereo not shown) [Example Q106, N-(4-((4-(3-azabicyclo[3.1.0]hexan-3-yl)-6-(methylsulfonyl)pyridin-2-yl)amino)-5-(2,2-dimethyl-2,3-dihydro-[1,4]dioxino[2,3-b]pyridin-6-yl)pyridin-2-yl)acetamide] |  |  | 
18 |  | 0.032 |  |  | CC(=O)Nc1cc(Nc2cc(C3(C#N)CC3)cc(S(C)(=O)=O)n2)c(-c2ccc3c(n2)OCC(C)(C)O3)cn1 [Example Q120, N-(4-((4-(1-cyanocyclopropyl)-6-(methylsulfonyl)pyridin-2-yl)amino)-5-(2,2-dimethyl-2,3-dihydro-[1,4]dioxino[2,3-b]pyridin-6-yl)pyridin-2-yl)acetamide] |  |  | 
